Measurements reported in paper PMC1069517 (Nucleic Acids Research, 2005).

T1: a/eIF2 β–γ dimer (Saccharolobus solfataricus, UniProt Q980A5)
T1 sequence (Q980A5 1-415): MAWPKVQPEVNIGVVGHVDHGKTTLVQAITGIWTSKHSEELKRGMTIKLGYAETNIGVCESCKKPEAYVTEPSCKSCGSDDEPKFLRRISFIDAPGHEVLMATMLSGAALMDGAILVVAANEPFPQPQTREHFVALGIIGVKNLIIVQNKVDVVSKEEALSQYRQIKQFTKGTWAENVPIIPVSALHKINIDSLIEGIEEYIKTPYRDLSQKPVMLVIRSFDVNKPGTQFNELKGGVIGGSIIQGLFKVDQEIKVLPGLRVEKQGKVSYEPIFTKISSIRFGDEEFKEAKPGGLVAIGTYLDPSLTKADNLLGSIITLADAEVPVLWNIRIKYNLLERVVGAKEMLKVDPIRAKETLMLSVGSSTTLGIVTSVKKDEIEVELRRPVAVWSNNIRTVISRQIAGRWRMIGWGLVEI
T1 sequence (Q97W59 1-139 partner): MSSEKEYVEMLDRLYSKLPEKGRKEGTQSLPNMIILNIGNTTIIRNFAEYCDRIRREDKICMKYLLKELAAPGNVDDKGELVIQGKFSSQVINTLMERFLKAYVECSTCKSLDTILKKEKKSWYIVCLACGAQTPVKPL

T2: a/eIF2 α–γ dimer (Saccharolobus solfataricus, UniProt Q980A5)
T2 sequence (Q980A5 1-415): T1 sequence (Q980A5 1-415)
T2 sequence (Q97Z79 1-266 partner): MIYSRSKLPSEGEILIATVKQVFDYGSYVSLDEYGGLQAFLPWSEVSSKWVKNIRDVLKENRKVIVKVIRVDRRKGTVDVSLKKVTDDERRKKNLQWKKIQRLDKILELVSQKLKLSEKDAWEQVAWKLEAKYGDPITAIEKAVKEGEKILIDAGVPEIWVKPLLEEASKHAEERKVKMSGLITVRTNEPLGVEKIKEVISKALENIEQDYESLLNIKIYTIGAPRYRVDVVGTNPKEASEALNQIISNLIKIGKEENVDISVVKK

T3: a/eIF2 alpha subunit;a/eIF2 beta subunit;a/eIF2 gamma subunit (Saccharolobus (Sulfolobus) …, UniProt Q97Z79;Q97W59;Q980A5 1-266;1-139;1-415, ||)
T3 sequence 1: T2 sequence (Q97Z79 1-266 partner)
T3 sequence 2: T1 sequence (Q97W59 1-139 partner)
T3 sequence 3: T1 sequence (Q980A5 1-415)

T4: a/eIF2 alpha subunit;a/eIF2 gamma subunit (Saccharolobus (Sulfolobus) …, UniProt Q97Z79;Q980A5 1-266;1-415, |)
T4 sequence 1: T2 sequence (Q97Z79 1-266 partner)
T4 sequence 2: T1 sequence (Q980A5 1-415)

B1: [35S]Met-tRNAi (structured_RNA)
RNA: AGCGGGGUGGGCUAGCCUGGUAAGGCCGCGGGGCUCAUAACCCCGAGGUCCCUGGUUCAAAUCCAGGCCCCGCUACCA
modifications: 3' aminoacylated with methionine; no base modifications (in vitro transcript)

Assays:
a/eIF2 β–γ dimer = target: T1, a/eIF2 β–γ dimer; test: nitrocellulose filter binding; conditions: 65 °C, 30 mM KCl, 50 mM HEPES pH 7.5, 0.5 mM MgCl2, 1 mM DTT; labelled compound
a/eIF2 α–γ dimer = target: T2, a/eIF2 α–γ dimer; test: nitrocellulose filter binding; conditions: 65 °C, 30 mM KCl, 50 mM HEPES pH 7.5, 0.5 mM MgCl2, 1 mM DTT; labelled compound
[1] = target: T3, a/eIF2 alpha subunit;a/eIF2 beta …; test: filter binding
[2] = target: T4, a/eIF2 alpha subunit;a/eIF2 gamma …; test: filter binding

Row | Molecule | nitrocellulose filter binding (a/eIF2 β–γ dimer) | nitrocellulose filter binding (a/eIF2 α–γ dimer) | binding result [1] | binding result [2]
1 | Nc1nc2c(ncn2[C@@H]2O[C@H](COP(=O)(O)OP(=O)(O)O)[C@@H](O)[C@H]2O)c(=O)[nH]1 [GDP] | displayed GDP and GTP binding curves essentially overlapping with those obtained with the γ-subunit alone | displayed GDP and GTP binding curves essentially overlapping with those obtained with the γ-subunit alone | – | –
2 | Nc1nc2c(ncn2[C@@H]2O[C@H](COP(=O)(O)OP(=O)(O)OP(=O)(O)O)[C@@H](O)[C@H]2O)c(=O)[nH]1 [GTP] | displayed GDP and GTP binding curves essentially overlapping with those obtained with the γ-subunit alone | displayed GDP and GTP binding curves essentially overlapping with those obtained with the γ-subunit alone | – | –
3 | B1 | – | – | binds | binds
